# Source: ChEMBL document CHEMBL1201862, “PubChem BioAssay data set” (2004)
# Calls of active or inactive are those of the source.
# Assays:
# [1] = target: Cytochrome P450 3A4 (Homo sapiens, UniProt P08684); settings: Potency;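 note: confirmatory qHTS run detecting inhibitors and substrates of CYP3A4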
# [2] = target: T1, Short transient receptor potential channel 4 (Mus musculus, UniProt Q9QUQ5); assay: calcium entry via TRPC4 opening agents – cell-based, HEK293 TRPC4/mu-opioid, Fluo-4 calcium, dose response (AID 434937); type: functional
# T1 sequence (Q9QUQ5 whole entry): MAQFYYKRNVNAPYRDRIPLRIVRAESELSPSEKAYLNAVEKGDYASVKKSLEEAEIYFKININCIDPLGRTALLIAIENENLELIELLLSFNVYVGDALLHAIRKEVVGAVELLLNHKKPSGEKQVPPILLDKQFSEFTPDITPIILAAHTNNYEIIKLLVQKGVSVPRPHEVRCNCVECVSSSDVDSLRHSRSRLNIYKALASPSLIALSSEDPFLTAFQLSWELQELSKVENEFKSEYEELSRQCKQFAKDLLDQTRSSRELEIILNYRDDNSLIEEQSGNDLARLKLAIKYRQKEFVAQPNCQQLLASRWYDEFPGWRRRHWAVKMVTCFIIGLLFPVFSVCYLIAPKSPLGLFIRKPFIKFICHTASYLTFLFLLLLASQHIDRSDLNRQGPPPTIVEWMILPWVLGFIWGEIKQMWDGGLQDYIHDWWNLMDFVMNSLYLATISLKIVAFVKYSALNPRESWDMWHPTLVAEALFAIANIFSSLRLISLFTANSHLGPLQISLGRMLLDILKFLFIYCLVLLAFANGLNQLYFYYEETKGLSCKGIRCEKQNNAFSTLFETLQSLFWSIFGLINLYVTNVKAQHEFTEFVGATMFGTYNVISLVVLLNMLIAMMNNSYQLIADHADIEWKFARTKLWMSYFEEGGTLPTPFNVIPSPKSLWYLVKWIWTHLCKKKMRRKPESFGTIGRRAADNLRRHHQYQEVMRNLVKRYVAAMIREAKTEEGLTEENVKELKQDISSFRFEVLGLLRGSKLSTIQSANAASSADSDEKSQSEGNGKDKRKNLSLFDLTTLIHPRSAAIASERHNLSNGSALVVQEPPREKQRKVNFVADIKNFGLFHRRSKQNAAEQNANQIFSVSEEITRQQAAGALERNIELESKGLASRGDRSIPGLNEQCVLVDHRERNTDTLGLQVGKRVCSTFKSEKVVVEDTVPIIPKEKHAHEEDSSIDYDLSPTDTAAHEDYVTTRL
# [3] = target: T1, Short transient receptor potential channel 4; assay: block of DAMGO-driven TRPC4 calcium entry – cell-based, HEK293 TRPC4/mu-opioid, Fluo-4 calcium, dose response (AID 434942); type: functional;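 note: potency of inhibitors blocking the TRPC4 calcium response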
# [4] = system: Vero; assay: cells; type: functional; settings: Chlorocebus sabaeus
# [5] = target: T2, High affinity choline transporter 1 (Homo sapiens, UniProt Q9GZV3); assay: human choline transporter blockers, potency – cell-based, 5-point CRC, membrane potential dye, dose response (AID 504840); type: functional
# T2 sequence (Q9GZV3 whole entry): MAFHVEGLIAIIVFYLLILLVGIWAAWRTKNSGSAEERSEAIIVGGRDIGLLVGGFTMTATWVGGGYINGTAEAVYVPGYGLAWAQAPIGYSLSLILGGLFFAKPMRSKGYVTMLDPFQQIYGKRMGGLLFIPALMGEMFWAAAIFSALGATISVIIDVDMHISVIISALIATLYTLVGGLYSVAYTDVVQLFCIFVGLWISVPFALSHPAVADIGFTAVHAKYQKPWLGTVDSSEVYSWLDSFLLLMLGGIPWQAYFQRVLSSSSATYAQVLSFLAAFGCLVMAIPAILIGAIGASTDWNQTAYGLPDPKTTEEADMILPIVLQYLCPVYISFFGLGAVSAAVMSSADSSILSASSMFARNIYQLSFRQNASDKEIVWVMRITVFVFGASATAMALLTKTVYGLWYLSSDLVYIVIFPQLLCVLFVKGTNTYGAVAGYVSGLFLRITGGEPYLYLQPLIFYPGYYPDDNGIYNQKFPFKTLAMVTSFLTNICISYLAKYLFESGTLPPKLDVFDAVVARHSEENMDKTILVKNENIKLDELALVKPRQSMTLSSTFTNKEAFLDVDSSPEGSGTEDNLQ
# [6] = target: Cytochrome P450 2C9 (Homo sapiens, UniProt P11712)
# [7] = target: Prothrombin (Homo sapiens, UniProt P00734); assay: Thrombin 1536 HTS Dose Response Confirmation. [Related pubchem assays: 1046 (Thrombin 1536 HTS; hits were confirmed in this assay)]; type: functional
# [8] = target: T3, NADPH oxidase 1 (Homo sapiens, UniProt Q9Y5S8); type: functional, cell-based;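 note: Cell-based assay with luminescence read-out, IC50 derived from inhibitor dose-response curves; intracellular ROS from endogenous NOX1 in intact HT29 colon cancer cells; potency of inhibitors that lower the ROS luminescence signal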
# T3 sequence (Q9Y5S8 whole entry): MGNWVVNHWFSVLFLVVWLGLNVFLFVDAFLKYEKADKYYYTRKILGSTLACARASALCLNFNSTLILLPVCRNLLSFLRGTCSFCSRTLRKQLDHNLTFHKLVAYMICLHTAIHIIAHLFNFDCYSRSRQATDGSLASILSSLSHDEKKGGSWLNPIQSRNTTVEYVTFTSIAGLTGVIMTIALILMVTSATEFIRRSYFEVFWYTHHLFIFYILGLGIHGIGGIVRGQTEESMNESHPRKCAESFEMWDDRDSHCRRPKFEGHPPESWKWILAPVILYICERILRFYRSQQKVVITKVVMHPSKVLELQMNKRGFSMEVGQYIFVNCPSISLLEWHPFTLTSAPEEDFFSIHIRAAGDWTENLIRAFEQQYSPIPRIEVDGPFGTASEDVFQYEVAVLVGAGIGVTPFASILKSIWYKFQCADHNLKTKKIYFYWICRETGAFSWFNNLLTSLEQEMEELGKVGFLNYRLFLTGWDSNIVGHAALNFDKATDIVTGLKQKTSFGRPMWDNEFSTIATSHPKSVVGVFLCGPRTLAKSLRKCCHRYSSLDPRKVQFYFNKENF
# [9] = system: HEK293; assay: inhibition of NOD1-driven NF-kB reporter – cell-based, luminescence, uHTS, primary screen (AID 1578); type: functional; settings: Homo sapiens
# [10] = system: HEK293; assay: NOD2 signaling inhibitors in MDP-stimulated cells, cell-based, uHTS, luminescence (AID 2001); type: functional; settings: Homo sapiens
# [11] = target: Nucleotide-binding oligomerization domain-containing protein 2 (Homo sapiens, UniProt Q9HC29); assay: inhibition of NOD2-driven NF-kB reporter – cell-based, luminescence, uHTS, HEK293 (AID 1566); type: functional
# [12] = system: HEK293; assay: cells; type: functional, cell-based; settings: Homo sapiens
# [13] = system: HEK293; assay: cells; type: functional, cell-based; settings: Homo sapiens; remark: listed apart in the source
# [14] = system: HEK293; assay: cells; type: functional, cell-based; settings: Homo sapiens; remark: listed apart in the source
# [15] = target: T4, Dual specificity protein phosphatase 6 (Rattus norvegicus, UniProt Q64346); assay: inhibition of rat DUSP6 enzyme activity – biochemical, in vitro, primary screen (AID 425)
# T4 sequence (Q64346 whole entry): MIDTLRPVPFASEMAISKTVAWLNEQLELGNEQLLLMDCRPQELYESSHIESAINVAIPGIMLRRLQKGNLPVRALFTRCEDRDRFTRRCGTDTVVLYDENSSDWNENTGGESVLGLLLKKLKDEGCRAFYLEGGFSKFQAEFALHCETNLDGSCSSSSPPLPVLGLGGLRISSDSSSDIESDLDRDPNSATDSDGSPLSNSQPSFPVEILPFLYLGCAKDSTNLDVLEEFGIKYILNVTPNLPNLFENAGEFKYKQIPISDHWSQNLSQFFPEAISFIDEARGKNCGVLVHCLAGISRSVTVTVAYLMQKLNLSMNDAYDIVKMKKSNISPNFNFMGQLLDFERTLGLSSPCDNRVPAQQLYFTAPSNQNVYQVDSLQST
# [16] = target: T5, Coagulation factor XII (Homo sapiens, UniProt P00748); type: functional;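 note: activated factor XIIa alpha cleaving a fluorogenic AMC peptide substrate; inhibitor potency from loss of enzyme activity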
# T5 sequence (P00748 whole entry): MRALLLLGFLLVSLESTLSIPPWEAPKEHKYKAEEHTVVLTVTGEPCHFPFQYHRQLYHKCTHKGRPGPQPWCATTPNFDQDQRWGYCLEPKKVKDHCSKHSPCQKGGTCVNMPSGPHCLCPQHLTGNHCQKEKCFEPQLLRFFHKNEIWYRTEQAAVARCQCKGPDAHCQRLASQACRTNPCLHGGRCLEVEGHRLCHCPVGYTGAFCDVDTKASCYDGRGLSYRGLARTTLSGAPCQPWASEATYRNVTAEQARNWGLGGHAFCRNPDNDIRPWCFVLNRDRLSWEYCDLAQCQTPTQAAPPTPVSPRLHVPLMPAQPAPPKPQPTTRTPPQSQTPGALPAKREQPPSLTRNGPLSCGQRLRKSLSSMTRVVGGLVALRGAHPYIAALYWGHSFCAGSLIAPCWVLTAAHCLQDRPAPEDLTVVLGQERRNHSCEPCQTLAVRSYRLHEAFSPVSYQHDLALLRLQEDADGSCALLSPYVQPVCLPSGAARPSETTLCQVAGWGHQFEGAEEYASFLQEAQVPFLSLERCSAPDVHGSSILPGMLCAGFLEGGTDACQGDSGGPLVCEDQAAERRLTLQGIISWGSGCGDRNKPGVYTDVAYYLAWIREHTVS
# [17] = system: Streptococcus; assay: GAS UMAA2166 growth inhibition – luminescence, BacTiterGlo, counter-screen for streptokinase expression inhibitor project, dose response (AID 1915); type: functional, organism-based;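 note: potency for reduction of bacterial viability or growth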
# [18] = system: Streptococcus sp. 'group A'; assay: Streptococcus pyogenes SK(-)GAS viability under kanamycin – luminescence, BacTiterGlo, confirmation, counter-screen for streptokinase expression inhibitor project, dose response (AID 1900); type: functional, organism-based
# [19] = system: INS1; assay: INS-1E survival protection against cytokine death – cell-based, luminescence, retest, dose response (AID 449756); type: functional; settings: Rattus norvegicus;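 note: cell death triggered by IL-1 beta plus TNF-alpha plus IFN-gamma mixture; protective hits raise ATP signal compared with cytokine alone wells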
# [20] = Luminescence Cell-Based Dose Retest to Confirm Inhibitors of Cancer Stem Cells. [Related pubchem assays (depositor defined):AID2717, AID2721]; type: functional; settings: Homo sapiens
# [21] = target: T6, Rac GTPase-activating protein 1 (Homo sapiens, UniProt Q9H0H5); assay: blockers of MgcRacGAP-driven Rac1 GTP hydrolysis – biochemical, ADP Hunter fluorescence, primary and confirmatory, confirmation (AID 624330); type: functional
# T6 sequence (Q9H0H5 whole entry): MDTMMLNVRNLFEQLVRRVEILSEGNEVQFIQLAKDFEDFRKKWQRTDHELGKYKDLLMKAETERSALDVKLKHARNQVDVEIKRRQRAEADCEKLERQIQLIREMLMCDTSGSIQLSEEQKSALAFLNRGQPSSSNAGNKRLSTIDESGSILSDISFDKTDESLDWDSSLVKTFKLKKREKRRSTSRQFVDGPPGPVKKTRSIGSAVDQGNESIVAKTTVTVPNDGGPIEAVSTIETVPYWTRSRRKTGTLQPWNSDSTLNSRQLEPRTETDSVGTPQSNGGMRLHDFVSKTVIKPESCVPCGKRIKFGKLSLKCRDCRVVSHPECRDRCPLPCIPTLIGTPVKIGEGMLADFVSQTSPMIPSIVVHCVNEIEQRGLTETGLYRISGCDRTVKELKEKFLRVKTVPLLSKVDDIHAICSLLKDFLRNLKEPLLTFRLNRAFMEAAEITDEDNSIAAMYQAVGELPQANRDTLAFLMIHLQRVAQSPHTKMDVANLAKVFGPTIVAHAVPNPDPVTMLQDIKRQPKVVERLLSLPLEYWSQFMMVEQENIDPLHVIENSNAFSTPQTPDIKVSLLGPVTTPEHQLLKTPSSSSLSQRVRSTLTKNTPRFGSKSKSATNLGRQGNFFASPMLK
# Sequence of Cytochrome P450 3A4 (P08684 whole entry): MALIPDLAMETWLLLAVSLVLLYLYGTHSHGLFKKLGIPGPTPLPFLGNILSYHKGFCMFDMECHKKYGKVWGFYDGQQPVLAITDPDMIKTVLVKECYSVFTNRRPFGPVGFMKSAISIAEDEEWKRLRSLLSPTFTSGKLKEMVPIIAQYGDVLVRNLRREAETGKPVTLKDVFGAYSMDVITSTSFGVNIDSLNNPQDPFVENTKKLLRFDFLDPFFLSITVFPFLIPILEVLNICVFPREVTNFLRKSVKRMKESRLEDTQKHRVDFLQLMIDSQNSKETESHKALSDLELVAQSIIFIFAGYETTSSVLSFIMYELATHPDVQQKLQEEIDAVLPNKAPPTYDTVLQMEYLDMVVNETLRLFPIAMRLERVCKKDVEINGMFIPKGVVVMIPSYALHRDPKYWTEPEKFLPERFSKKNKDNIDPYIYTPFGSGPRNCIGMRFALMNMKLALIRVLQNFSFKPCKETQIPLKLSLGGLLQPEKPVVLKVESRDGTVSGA
# Sequence of Cytochrome P450 2C9 (P11712 whole entry): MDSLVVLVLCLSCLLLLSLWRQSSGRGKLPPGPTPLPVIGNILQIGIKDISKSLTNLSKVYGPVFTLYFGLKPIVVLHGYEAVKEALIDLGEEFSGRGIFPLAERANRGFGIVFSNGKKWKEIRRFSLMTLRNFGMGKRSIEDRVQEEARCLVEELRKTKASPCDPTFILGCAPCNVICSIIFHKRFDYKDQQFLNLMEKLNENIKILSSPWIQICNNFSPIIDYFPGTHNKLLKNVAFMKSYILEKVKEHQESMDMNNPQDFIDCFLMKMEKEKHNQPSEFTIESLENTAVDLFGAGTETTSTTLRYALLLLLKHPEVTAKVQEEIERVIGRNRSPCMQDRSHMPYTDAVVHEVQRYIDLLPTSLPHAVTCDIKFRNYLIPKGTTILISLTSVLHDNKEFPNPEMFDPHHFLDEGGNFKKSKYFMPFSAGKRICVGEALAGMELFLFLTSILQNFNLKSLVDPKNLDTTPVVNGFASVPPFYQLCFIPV
# Sequence of Nucleotide-binding oligomerization domain-containing protein 2 (Q9HC29 whole entry, the tested form may be a part): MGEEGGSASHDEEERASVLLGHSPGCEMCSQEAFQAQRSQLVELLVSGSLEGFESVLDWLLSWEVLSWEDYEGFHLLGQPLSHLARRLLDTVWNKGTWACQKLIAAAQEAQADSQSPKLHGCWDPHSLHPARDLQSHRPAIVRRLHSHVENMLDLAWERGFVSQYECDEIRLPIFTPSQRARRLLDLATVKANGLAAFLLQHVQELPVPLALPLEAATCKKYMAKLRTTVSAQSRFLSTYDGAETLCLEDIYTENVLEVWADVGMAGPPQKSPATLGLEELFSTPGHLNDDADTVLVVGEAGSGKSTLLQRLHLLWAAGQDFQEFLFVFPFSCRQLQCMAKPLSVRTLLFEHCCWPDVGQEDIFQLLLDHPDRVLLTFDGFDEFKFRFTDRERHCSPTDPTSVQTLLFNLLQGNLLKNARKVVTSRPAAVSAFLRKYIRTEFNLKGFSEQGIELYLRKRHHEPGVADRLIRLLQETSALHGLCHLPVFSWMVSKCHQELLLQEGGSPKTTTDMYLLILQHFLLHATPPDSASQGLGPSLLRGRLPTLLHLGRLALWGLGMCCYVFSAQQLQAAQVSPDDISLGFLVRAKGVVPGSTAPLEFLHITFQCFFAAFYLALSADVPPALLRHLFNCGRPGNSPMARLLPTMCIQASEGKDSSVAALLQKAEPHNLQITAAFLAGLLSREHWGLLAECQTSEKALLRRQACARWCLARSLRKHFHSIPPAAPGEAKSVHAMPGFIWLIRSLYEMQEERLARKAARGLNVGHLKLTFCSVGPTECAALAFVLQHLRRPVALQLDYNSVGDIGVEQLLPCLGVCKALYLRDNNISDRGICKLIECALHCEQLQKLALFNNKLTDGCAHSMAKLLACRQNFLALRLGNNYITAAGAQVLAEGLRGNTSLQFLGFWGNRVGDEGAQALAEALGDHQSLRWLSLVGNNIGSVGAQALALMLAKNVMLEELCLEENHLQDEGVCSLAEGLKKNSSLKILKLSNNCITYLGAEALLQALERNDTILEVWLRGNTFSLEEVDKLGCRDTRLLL
compound,measurement,setting,value
CNC(=O)[C@@]1(C)C=C[C@@H](Cc2ccccc2)N1C(=O)OC,AC50,[1],3.16 µM (inconclusive)
CN(C)C(CNC(=O)Cc1cccc(C(F)(F)F)c1)c1ccccc1 (stereo not given),EC50,[2],0.0947 µM (active)
same,EC50,[3],0.0093 µM (active)
Nc1ccc2ccccc2c1 [NAPHTHYLAMINE],AC50,[1],12.6 µM (inconclusive)
Cc1cc(OCc2cc(C(=O)NCCN3CCCCC3CO)no2)cc(C)c1Cl (stereo not given),CC50,[4],> 25 µM (active)
same,EC50,[3],2.99 µM (active)
same,IC50,[5],18.2 µM (active)
N#Cc1cccc(-c2nc3cnc(N4CCOCC4)nc3n(Cc3ccc(F)cc3)c2=O)c1,AC50,[6],inconclusive
Cn1c(SCC(=O)NC2CCCC2)nnc1-c1ccc(S(=O)(=O)N2CCOCC2)cc1,IC50,[7],> 50 µM (not active)
"CCOC(=O)C1(O)Oc2cc(OC)cc(OC)c2C(=O)C1c1ccccc1 (stereo not given) [2-ETHOXYCARBONYL-2-HYDROXY-5,7-DIMETHOXYISOFLAVANONE]",AC50,[1],20 µM (inconclusive)
Cc1ccc(OP(=O)(Oc2ccc(C)cc2)N2C=Cc3ccccc3[C@H]2C#N)cc1,AC50,[6],inconclusive
Fc1ccc(NC(=S)NNC(=S)Nc2ccccc2)cc1,IC50,[8],0.218 µM (active)
CCc1ccc(OCC(=O)Nc2ccc(-c3cc4ccccc4oc3=O)c(OC)c2)cc1,EC50,[9],2.18 µM (active)
same,IC50,[10],2.94 µM (active)
same,EC50,[11],5.25 µM (active)
same,IC50,[12],11.3 µM (active)
same,IC50,[13],> 20 µM (inactive)
same,IC50,[14],2.79 µM (active)
O=C(Oc1ccc([N+](=O)[O-])cc1)c1sc2ccccc2c1Cl,IC50,[8],> 17 µM (not active)
O=C(c1ccc(-c2ccccc2)cc1)N1CCN(Cc2ccccn2)CC1,IC50,[15],> 100 µM (not active)
COc1ccc(F)cc1C(=O)C1CCCN(Cc2ccc3c(c2)OCCO3)C1 (stereo not given),EC50,[3],1.33 µM (active)
CCN(CC)c1ccc(NC(=O)Nc2ccc(OCc3ccccc3)cc2)cc1,IC50,[8],0.235 µM (active)
COC(=O)c1ccccc1NC(=O)Nc1cc(C)cc(C)n1,IC50,[15],> 100 µM (not active)
O=C(N/N=C/c1ccc(OCc2cnc(Cl)s2)cc1)c1ccncc1,IC50,[16],> 50 µM (inactive)
same,IC50,[7],> 50 µM (not active)
O=C(N/N=C/c1cccc(F)c1)c1c(O)nc2ccccc2c1O,EC50,[17],3.03 µM (active)
same,EC50,[18],2.87 µM (active)
same,IC50,[7],> 50 µM (not active)
same,AC50,[19],3.63 µM (active)
COc1cc(/C=C/C(=O)c2ccc3c(c2)OCO3)cc(Cl)c1O,AC50,[20],6.39 µM (active)
same,EC50,[2],5.96 µM (active)
same,IC50,[21],93.6 µM (active)
CSc1ccc(NC(=O)Nc2ccc(N(C)C)cc2)cc1,IC50,[8],0.0777 µM (active)
N#Cc1sc2nc(-c3ccccc3)cc(C(F)(F)F)c2c1N,IC50,[7],> 50 µM (not active)
CCC(=O)CC(NC(=O)OC)c1ccccc1 (stereo not given),AC50,[1],6.31 µM (inconclusive)
